Earlier results on one substance are cited in US5321127A, “Antiplatelet and antithrombotic activity of platelet glycoprotein Ib receptor fragments” (priority 1991, dated 1994).

The data set has as its system vWF binding to platelets. The settings on record: literature.

For the substance “synthetic peptide spanning amino acid residues aspartate235 to lysine262: GpIbα synthetic peptide reported by Katagiri et al. (DVKAMTSNVASVQCDNSDKFPVYKYPGK; UniProt P07359 251-278, looked up, fragment)”, the “Inhibition of ristocetin-dependent binding of vWF to platelets” value is “inhibited”.
